# Test system: HBV replication (HBV plus-polarity DNA strand)
# Assay: HBV replication inhibition, strand preferential qPCR in hepDES19 cells
# Format: cell-based, hepatitis B virus
# Details: not given
# Procedure: HBV replication inhibition was measured in hepDES19 cells following 72 h compound exposure without compound replenishment. EC50 values were determined by HBV plus-polarity strand suppression using a strand preferential qPCR assay, as described previously ([28]). Three or more replicate values were obtained on different days.
row,Structure (SMILES),HepDES19 SI (CC50/EC50)
1,CC(=NOCc1ccc(C)cc1)c1c(C)cc(=O)n(O)c1O [Compound 1462],112
2,CC(=NOCc1ccc(F)cc1F)c1c(C)cc(=O)n(O)c1O [Compound 1464],281

# Same assay, conditions: 72 h exposure, HBV plus-polarity strand suppression, highest concentration tested 100 µM, mean ± SD, read-out: HepDES19 EC50
row,Structure (SMILES),EC50
1,CC(=NOCc1ccc(C)cc1)c1c(C)cc(=O)n(O)c1O [Compound 1462],295 ± 122 nM
2,CC(=NOCc1ccc(F)cc1F)c1c(C)cc(=O)n(O)c1O [Compound 1464],188 ± 63 nM

# Test system: not listed separately
# Assay: Solubility limit, turbidimetric assay
# Format: physicochemical
# Details: pH 5 (fed simulated intestinal fluid); upper limit 200 µM
# Procedure: Solubility limits were determined by a turbidimetric assay, as described ([27]), with the solubility limit being defined as the compound concentration where light scattering began to rise. Two or more replicate assays were performed for each compound at each pH on different days.
row,Structure (SMILES),Average Sol (solubility limit)
1,CC(=NOCc1ccc(C)cc1)c1c(C)cc(=O)n(O)c1O [Compound 1462],> 200 µM
2,CC(=NOCc1ccc(F)cc1F)c1c(C)cc(=O)n(O)c1O [Compound 1464],> 200 µM

# Same assay, conditions: pH 5, replicate 1; upper limit 200 µM
row,Structure (SMILES),Sol 1 (solubility limit)
1,CC(=NOCc1ccc(C)cc1)c1c(C)cc(=O)n(O)c1O [Compound 1462],> 200 µM
2,CC(=NOCc1ccc(F)cc1F)c1c(C)cc(=O)n(O)c1O [Compound 1464],> 200 µM

# Same assay, conditions: pH 5, replicate 2; upper limit 200 µM
row,Structure (SMILES),Sol 2 (solubility limit)
1,CC(=NOCc1ccc(C)cc1)c1c(C)cc(=O)n(O)c1O [Compound 1462],> 200 µM
2,CC(=NOCc1ccc(F)cc1F)c1c(C)cc(=O)n(O)c1O [Compound 1464],> 200 µM

# Same assay, conditions: pH 5, replicate 3; upper limit 200 µM
row,Structure (SMILES),Sol 3 (solubility limit)
1,CC(=NOCc1ccc(F)cc1F)c1c(C)cc(=O)n(O)c1O [Compound 1464],> 200 µM

# Same assay, conditions: pH 6.5 (fasted simulated intestinal fluid); upper limit 200 µM
row,Structure (SMILES),Average Sol (solubility limit)
1,CC(=NOCc1ccc(C)cc1)c1c(C)cc(=O)n(O)c1O [Compound 1462],> 200 µM
2,CC(=NOCc1ccc(F)cc1F)c1c(C)cc(=O)n(O)c1O [Compound 1464],> 200 µM

# Same assay, conditions: pH 6.5, replicate 1; upper limit 200 µM
row,Structure (SMILES),Sol 1 (solubility limit)
1,CC(=NOCc1ccc(C)cc1)c1c(C)cc(=O)n(O)c1O [Compound 1462],> 200 µM
2,CC(=NOCc1ccc(F)cc1F)c1c(C)cc(=O)n(O)c1O [Compound 1464],> 200 µM

# Same assay, conditions: pH 6.5, replicate 2; upper limit 200 µM
row,Structure (SMILES),Sol 2 (solubility limit)
1,CC(=NOCc1ccc(C)cc1)c1c(C)cc(=O)n(O)c1O [Compound 1462],> 200 µM
2,CC(=NOCc1ccc(F)cc1F)c1c(C)cc(=O)n(O)c1O [Compound 1464],> 200 µM

# Same assay, conditions: pH 7.4 (DMEM-F12 with 10% FBS); upper limit 200 µM
row,Structure (SMILES),Average Sol (solubility limit)
1,CC(=NOCc1ccc(C)cc1)c1c(C)cc(=O)n(O)c1O [Compound 1462],> 200 µM
2,CC(=NOCc1ccc(F)cc1F)c1c(C)cc(=O)n(O)c1O [Compound 1464],> 200 µM

# Same assay, conditions: pH 7.4, replicate 1; upper limit 200 µM
row,Structure (SMILES),Sol 1 (solubility limit)
1,CC(=NOCc1ccc(C)cc1)c1c(C)cc(=O)n(O)c1O [Compound 1462],> 200 µM
2,CC(=NOCc1ccc(F)cc1F)c1c(C)cc(=O)n(O)c1O [Compound 1464],> 200 µM

# Same assay, conditions: pH 7.4, replicate 2; upper limit 200 µM
row,Structure (SMILES),Sol 2 (solubility limit)
1,CC(=NOCc1ccc(C)cc1)c1c(C)cc(=O)n(O)c1O [Compound 1462],> 200 µM
2,CC(=NOCc1ccc(F)cc1F)c1c(C)cc(=O)n(O)c1O [Compound 1464],> 200 µM

# Test system: not listed separately
# Assay: Parallel artificial membrane permeability assay (PAMPA)
# Format: in vitro ADME
# Details: FeSSIF pH 5
# Procedure: Compound Papp values were determined by normalizing the experimental compound absorbance to the compounds’ absorbances at equilibrium, membrane porosity, buffer volume, and time (s). Two or more replicate assays were obtained on separate days for each pH.
Structure (SMILES),Avg Papp (PAMPA),Interpretation (PAMPA Papp)
CC(=NOCc1ccc(C)cc1)c1c(C)cc(=O)n(O)c1O [Compound 1462],1.01e-05 cm/s,H (H: Papp > 1*10-6)
CC(=NOCc1ccc(F)cc1F)c1c(C)cc(=O)n(O)c1O [Compound 1464],3.62e-05 cm/s,H (H: Papp > 1*10-6)

# Same assay, conditions: FeSSIF pH 5, replicate 1
row,Structure (SMILES),Papp 1 (PAMPA)
1,CC(=NOCc1ccc(C)cc1)c1c(C)cc(=O)n(O)c1O [Compound 1462],1.47e-05 cm/s
2,CC(=NOCc1ccc(F)cc1F)c1c(C)cc(=O)n(O)c1O [Compound 1464],1.44e-05 cm/s

# Same assay, conditions: FeSSIF pH 5, replicate 2
row,Structure (SMILES),Papp 2 (PAMPA)
1,CC(=NOCc1ccc(C)cc1)c1c(C)cc(=O)n(O)c1O [Compound 1462],5.56e-06 cm/s
2,CC(=NOCc1ccc(F)cc1F)c1c(C)cc(=O)n(O)c1O [Compound 1464],5.01e-05 cm/s

# Same assay, conditions: FeSSIF pH 5, replicate 3
row,Structure (SMILES),Papp 3 (PAMPA)
1,CC(=NOCc1ccc(F)cc1F)c1c(C)cc(=O)n(O)c1O [Compound 1464],4.42e-05 cm/s

# Same assay, conditions: pH 7.4
Structure (SMILES),Avg Papp (PAMPA),Interpretation (PAMPA Papp)
CC(=NOCc1ccc(C)cc1)c1c(C)cc(=O)n(O)c1O [Compound 1462],1.44e-06 cm/s,H (H: Papp > 1*10-6)
CC(=NOCc1ccc(F)cc1F)c1c(C)cc(=O)n(O)c1O [Compound 1464],2.49e-06 cm/s,H (H: Papp > 1*10-6)

# Same assay, conditions: pH 7.4, replicate 1
row,Structure (SMILES),Papp 1 (PAMPA)
1,CC(=NOCc1ccc(C)cc1)c1c(C)cc(=O)n(O)c1O [Compound 1462],5.13e-07 cm/s
2,CC(=NOCc1ccc(F)cc1F)c1c(C)cc(=O)n(O)c1O [Compound 1464],2.62e-06 cm/s

# Same assay, conditions: pH 7.4, replicate 2
row,Structure (SMILES),Papp 2 (PAMPA)
1,CC(=NOCc1ccc(C)cc1)c1c(C)cc(=O)n(O)c1O [Compound 1462],9.71e-07 cm/s
2,CC(=NOCc1ccc(F)cc1F)c1c(C)cc(=O)n(O)c1O [Compound 1464],2.31e-06 cm/s

# Same assay, conditions: pH 7.4, replicate 3
row,Structure (SMILES),Papp 3 (PAMPA)
1,CC(=NOCc1ccc(C)cc1)c1c(C)cc(=O)n(O)c1O [Compound 1462],2.84e-06 cm/s
2,CC(=NOCc1ccc(F)cc1F)c1c(C)cc(=O)n(O)c1O [Compound 1464],2.3e-06 cm/s

# Same assay, conditions: pH 7.4, replicate 4
row,Structure (SMILES),Papp 4 (PAMPA)
1,CC(=NOCc1ccc(F)cc1F)c1c(C)cc(=O)n(O)c1O [Compound 1464],2.73e-06 cm/s

# Test system: MDCK-MDR1 cells
# Assay: MDCK-MDR1 permeability assay
# Format: in vitro ADME
# Details: MDCK-MDR1 cells, 10 µM compound, 2 h; actively effluxed if >2
# Procedure: MDCK-MDR1 cells were seeded on 96-well, high protein binding immobilon-P membrane plates (Millipore Sigma) at 2.4 × 10^4 cells per well for 4 days. Media were then decanted, and the cells were equilibrated with Hanks balanced salt solution (HBSS) supplemented with 10 mM CaCl2 and 1 mM MgCl2 for 1 h. Compound (10 µM) was then added to the apical side to assess active transport and to the basolateral side to assess active efflux. The cells were incubated with compound for 2 h with shaking at 37°C. Samples (50 µL) were retrieved from the recipient wells and mixed with 150 µL acetonitrile (ACN) and internal standard (1:1 of 200 ng/mL chloridazon:enalapril). Samples were pelleted at 4,000 × g and the supernatant was analyzed by liquid-chromatography/tandem mass spectrometry (LCMS/MS) analyses. […]. Active efflux was determined by Papp B/A/Papp A/B.
# Tight junction formation was assessed by lucifer yellow permeation immediately following sample retrieval. Briefly, lucifer yellow (10 µM) was added to the apical wells and HBSS was added to the basolateral wells for 1 h with shaking at 37°C, after which sample was collected from the basolateral side and read on a Biotek Synergy HTX multi-mode plate reader with 485/20 excitation and 520/20 emission filters defined by the Center Wavelength/band-pass values. The percent lucifer yellow fluorescence was determined by subtracting the HBSS relative fluorescent units (RFU) from the sample RFU and normalizing to the lucifer yellow positive control RFU. Lucifer yellow permeation was determined to be acceptable if ≤3%.
row,Structure (SMILES),Efflux Ratio (Papp B-A/A-B)
1,CC(=NOCc1ccc(C)cc1)c1c(C)cc(=O)n(O)c1O [Compound 1462],1.31
2,CC(=NOCc1ccc(F)cc1F)c1c(C)cc(=O)n(O)c1O [Compound 1464],1.04

# Target: T1, human ribonuclease H1 (huRNase H1) (Homo sapiens, UniProt O60930)
# T1 construct: made in house; host or cells: Escherichia coli
# T1 sequence (O60930 1-286): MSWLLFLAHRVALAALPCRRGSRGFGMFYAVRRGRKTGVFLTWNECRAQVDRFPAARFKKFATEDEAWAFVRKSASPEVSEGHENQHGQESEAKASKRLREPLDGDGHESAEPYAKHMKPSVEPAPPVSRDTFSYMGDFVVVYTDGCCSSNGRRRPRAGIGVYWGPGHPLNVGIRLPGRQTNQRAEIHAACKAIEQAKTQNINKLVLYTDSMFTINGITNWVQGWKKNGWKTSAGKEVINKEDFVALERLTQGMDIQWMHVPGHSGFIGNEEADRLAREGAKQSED
# Assay: Human RNase H1 inhibition, fluorescent biochemical assay
# Details: not given
# Procedure: Recombinant human ribonuclease H1 (huRNase H1) was expressed in Escherichia coli and purified by nickel affinity chromatography, as described previously ([30]). […] The heteroduplex substrate was prepared, as described by Ponzar et al. ([30]). Reactions were initiated by the addition of MgCl2 (5 mM final) and were performed on a Biotek Synergy HTX multi-mode plate reader at 28°C.
# Maximum rates of fluorescence increase were calculated using the Biotek Gen5 v3.15 software and percentage activity was determined for each compound concentration by subtracting rates from no enzyme reactions and normalizing to DMSO reactions. […] Reactions were performed at least three times on separate days.
row,Structure (SMILES),Selectivity of HBV replication inhibition over huRNase H1 (huRNase H1 IC50 versus HBV EC50)
1,CC(=NOCc1ccc(C)cc1)c1c(C)cc(=O)n(O)c1O [Compound 1462],at least 10 fold
2,CC(=NOCc1ccc(F)cc1F)c1c(C)cc(=O)n(O)c1O [Compound 1464],at least 10 fold

# Test system: not listed separately
# Assay: Microsome stability
# Format: in vitro ADME, human
# Details: human, microsomes
# Procedure: Human liver microsomes (gender pooled, 50 individuals) were purchased from BioIVT and stored at −80°C until use. […] Reactions were initiated by addition of 1.2 mM NADPH. […] Microsomal proteins were pelleted at 4,000 × g and the supernatant was analyzed via LCMS/MS. […] The ln percent remaining values were plotted against time, the negative slope was taken (k), and compound half-life (t1/2) was determined using ln2/k. Intrinsic clearance (Clint [µL/min/mg]) was calculated by (V × ln2)/t1/2, where V is the incubation volume (µL) divided by the protein concentration in the reaction (mg) ([31]).
Structure (SMILES),"Clearance (intrinsic clearance, Clint)",Half-life
CC(=NOCc1ccc(C)cc1)c1c(C)cc(=O)n(O)c1O [Compound 1462],34.8 µL/min/mg,>30 min
CC(=NOCc1ccc(F)cc1F)c1c(C)cc(=O)n(O)c1O [Compound 1464],,>30 min

# Test system: HepDES19 cells
# Assay: not given
# Details: read-out: HepDES19 CC50; 72 h, MTS; highest concentration tested 100 µM; mean ± SD
row,Structure (SMILES),CC50
1,CC(=NOCc1ccc(C)cc1)c1c(C)cc(=O)n(O)c1O [Compound 1462],33.1 ± 5.24 µM
2,CC(=NOCc1ccc(F)cc1F)c1c(C)cc(=O)n(O)c1O [Compound 1464],63.6 ± 27 µM

# Reference: PMC11784145, “Efficacy and in vitro pharmacological assessment of novel N-hydroxypyridinediones as hepatitis B virus ribonuclease H inhibitors” (Antimicrobial Agents and Chemotherapy, 2024)
